Test results taken from patent US8048892B2, “Azaquinolone based compounds exhibiting prolyl hydroxylase inhibitory activity, compositions, and uses thereof” (Amgen Inc., priority 2006, dated 2011).
Structures can show the parent of a compound that is named as a salt.

Target: HIF PHD2 (Homo sapiens, UniProt Q9GZT9)
Experiment: PHD2 inhibition assay (TR-FRET, VCB-Eu detection of hydroxylated P564-HIF1α peptide)
Assay type: biochemical
Conditions: 2 nM PHD2, 100 nM P564-HIF1α peptide, 0.25 μM 2-oxoglutarate
Procedure, shortened: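 Human PHD2 (2 nM final) preincubated 1 h at room temperature with compound and 100 μM FeCl2 in pH 6 MES buffer, 5% DMSO final. Reaction with 100 nM biotinylated P564-HIF1α peptide, 2 mM ascorbate and 0.25 μM 2-oxoglutarate for 1 h, stopped with succinate. Hydroxylation read by TR-FRET (VCB-Eu/streptavidin-APC, 655/615 nm); IC50 from 4-parameter fit of percent of control.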

Sequence of HIF PHD2 (Q9GZT9 whole entry): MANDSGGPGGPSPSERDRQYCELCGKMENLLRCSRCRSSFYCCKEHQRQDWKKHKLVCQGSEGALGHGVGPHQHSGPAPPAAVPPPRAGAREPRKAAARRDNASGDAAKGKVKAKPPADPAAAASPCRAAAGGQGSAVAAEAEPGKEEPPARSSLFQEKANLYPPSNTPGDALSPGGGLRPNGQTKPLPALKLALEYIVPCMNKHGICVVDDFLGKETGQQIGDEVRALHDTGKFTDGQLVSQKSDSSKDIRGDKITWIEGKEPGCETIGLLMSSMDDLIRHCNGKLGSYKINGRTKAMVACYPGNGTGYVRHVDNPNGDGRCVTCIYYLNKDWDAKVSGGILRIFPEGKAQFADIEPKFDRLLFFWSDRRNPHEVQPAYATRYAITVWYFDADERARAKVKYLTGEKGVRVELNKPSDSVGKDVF

| IC50 | Compound |
| --- | --- |
| < 50 nM | Cc1nc(F)ccc1-c1cnc2c(c1)c(O)c(C(=O)NCC(=O)O)c(=O)n2C [Example 47, 2-(6-(6-Fluoro-2-methylpyridin-3-yl)-4-hydroxy-1-methyl-2-oxo-1,2-dihydro-1,8-naphthyridine-3-carboxamido)acetic acid] |
| < 50 nM | Cn1c(=O)c(C(=O)NCC(=O)O)c(O)c2ncc(C3CCCC3)cc21 [Example 5, 2-(7-Cyclopentyl-4-hydroxy-1-methyl-2-oxo-1,2-dihydro-1,5-naphthyridine-3-carboxamido)acetic acid] |
| 50 to 100 nM | CCCc1cnc2c(c1)c(O)c(C(=O)NCC(=O)O)c(=O)n2C [Example 83, 2-(4-Hydroxy-1-methyl-2-oxo-6-propyl-1,2-dihydro-1,8-naphthyridine-3-carboxamido)acetic acid] |
| < 50 nM | Cn1c(=O)c(C(=O)NCC(=O)O)c(O)c2cc(Cl)ncc21 [Example 111, 2-(6-Chloro-4-hydroxy-1-methyl-2-oxo-1,2-dihydro-1,7-naphthyridine-3-carboxamido)acetic acid] |
| < 50 nM | CC(C)C#Cc1cnc2c(O)c(C(=O)NCC(=O)O)c(=O)n(C)c2c1 [Example 9, 2-(4-Hydroxy-1-methyl-7-(3-methylbut-1-ynyl)-2-oxo-1,2-dihydro-1,5-naphthyridine-3-carboxamido)acetic acid] |
| < 50 nM | Cc1ccnc(-c2cnc3c(c2)c(O)c(C(=O)NCC(=O)O)c(=O)n3C)n1 [Example 27, 2-(4-Hydroxy-1-methyl-6-(4-methylpyrimidin-2-yl)-2-oxo-1,2-dihydro-1,8-naphthyridine-3-carboxamido)acetic acid] |
| 50 to 100 nM | Cn1c(=O)c(C(=O)NCC(=O)O)c(O)c2cc(C3CCNCC3)ncc21 [Example 115, 2-(4-Hydroxy-1-methyl-2-oxo-6-(piperidin-4-yl)-1,2-dihydro-1,7-naphthyridine-3-carboxamido)acetic acid, Trifluoroacetic acid salt] |
| 100 to 500 nM | Cn1c(=O)c(C(=O)NCC(=O)O)c(O)c2cc(-c3ccccc3)cnc21 [Example 46, 2-(4-Hydroxy-1-methyl-2-oxo-6-phenyl-1,2-dihydro-1,8-naphthyridine-3-carboxamido)acetic acid] |
| < 50 nM | Cc1ccccc1-c1cc2c(O)c(C(=O)NCC(=O)O)c(=O)n(C)c2cn1 [Example 106, N-((4-Hydroxy-1-methyl-6-(2-methylphenyl)-2-oxo-1,2-dihydro-1,7-naphthyridin-3-yl)carbonyl)glycine] |
| 50 to 100 nM | CN1CCOc2cc(-c3cnc4c(c3)c(O)c(C(=O)NCC(=O)O)c(=O)n4C)ccc21 [Example 56, N-((4-Hydroxy-1-methyl-6-(4-methyl-3,4-dihydro-2H-1,4-benzoxazin-7-yl)-2-oxo-1,2-dihydro-1,8-naphthyridin-3-yl)carbonyl)glycine] |
| < 50 nM | Cn1c(=O)c(C(=O)NCC(=O)O)c(O)c2ccnc(-c3ccccc3)c21 [Example 128, 2-(4-Hydroxy-1-methyl-2-oxo-8-phenyl-1,2-dihydro-1,7-naphthyridine-3-carboxamido)acetic acid] |
| < 50 nM | C[C@H](NC(=O)c1c(O)c2cc(I)cnc2n(C)c1=O)C(=O)O [Example 73, (S)-2-(4-Hydroxy-6-iodo-1-methyl-2-oxo-1,2-dihydro-1,8-naphthyridine-3-carboxamido)propanoic acid] |
| 50 to 100 nM | Cn1c(=O)c(C(=O)NCC(=O)O)c(O)c2cc(F)cnc21 [Example 77, 2-(6-Fluoro-4-hydroxy-1-methyl-2-oxo-1,2-dihydro-1,8-naphthyridine-3-carboxamido)acetic acid] |
| < 50 nM | Cn1c(=O)c(C(=O)NCC(=O)O)c(O)c2ccc(C3=CCCCC3)nc21 [Example 13, 2-(7-Cyclohexenyl-4-hydroxy-1-methyl-2-oxo-1,2-dihydro-1,8-naphthyridine-3-carboxamido)acetic acid] |
| < 50 nM | Cc1ncccc1-c1cnc2c(c1)c(O)c(C(=O)NCC(=O)O)c(=O)n2C [Example 45, 2-(4-Hydroxy-1-methyl-6-(2-methylpyridin-3-yl)-2-oxo-1,8-naphthyridine-3-carboxamido)acetic acid] |
| 50 to 100 nM | Cn1c(=O)c(C(=O)NCC(=O)O)c(O)c2ccnc(Cl)c21 [Example 126, 2-(8-Chloro-4-hydroxy-1-methyl-2-oxo-1,2-dihydro-1,7-naphthyridine-3-carboxamido)acetic acid] |
| < 50 nM | Cn1c(=O)c(C(=O)NCC(=O)O)c(O)c2cc(-c3nccc(C(F)(F)F)n3)cnc21 [Example 28] |
| 50 to 100 nM | Cn1c(=O)c(C(=O)NCC(=O)O)c(O)c2ncc(-c3ccccc3)cc21 [Example 3, 2-(4-Hydroxy-1-methyl-2-oxo-7-phenyl-1,2-dihydro-1,5-naphthyridine-3-carboxamido)acetic acid] |
| < 50 nM | Cn1c(=O)c(C(=O)NCC(=O)O)c(O)c2cc(Br)c(C(F)(F)F)nc21 [Example 94, 2-(6-Bromo-4-hydroxy-1-methyl-2-oxo-7-(trifluoromethyl)-1,2-dihydro-1,8-naphthyridine-3-carboxamido)acetic acid] |
| < 50 nM | Cn1c(=O)c(C(=O)NCC(=O)O)c(O)c2cc(C3CCCCC3)cnc21 [Example 66, 2-(6-Cyclohexyl-4-hydroxy-1-methyl-2-oxo-1,2-dihydro-1,8-naphthyridine-3-carboxamido)acetic acid] |
| 100 to 500 nM | CC#Cc1cnc2c(c1)c(O)c(C(=O)NCC(=O)O)c(=O)n2C [Example 84, 2-(4-Hydroxy-1-methyl-2-oxo-6-(prop-1-ynyl)-1,2-dihydro-1,8-naphthyridine-3-carboxamido)acetic acid] |
| < 50 nM | CN1CC=C(c2cc3c(O)c(C(=O)NCC(=O)O)c(=O)n(C)c3cn2)CC1 [Example 116, 2-(4-Hydroxy-1-methyl-6-(1-methyl-1,2,3,6-tetrahydropyridin-4-yl)-2-oxo-1,2-dihydro-1,7-naphthyridine-3-carboxamido)acetic acid, Trifluoroacetic acid salt] |
| < 50 nM | Cn1c(=O)c(C(=O)NCC(=O)O)c(O)c2ncc(Br)cc21 [Example 1, N-((7-Bromo-4-hydroxy-1-methyl-2-oxo-1,2-dihydro-1,5-naphthyridin-3-yl)carbonyl)glycine] |
| 50 to 100 nM | Cc1cc(C)nc(-c2cnc3c(c2)c(O)c(C(=O)NCC(=O)O)c(=O)n3C)n1 [Example 30, 2-(6-(4,6-Dimethylpyrimidin-2-yl)-4-hydroxy-1-methyl-2-oxo-1,2-dihydro-1,8-naphthyridine-3-carboxamido)acetic acid] |
| < 50 nM | Cn1c(=O)c(C(=O)NCC(=O)O)c(O)c2cc(C#CC3CC3)cnc21 [Example 82, 2-(6-(2-Cyclopropylethynyl)-4-hydroxy-1-methyl-2-oxo-1,2-dihydro-1,8-naphthyridine-3-carboxamido)acetic acid] |

| Compound | IC50 |
| --- | --- |
| Cn1c(=O)c(C(=O)NCC(=O)O)c(O)c2cc(C3CCCO3)c(C(F)(F)F)nc21 (single isomer, unassigned) [Example 102, (R)-2-(4-Hydroxy-1-methyl-2-oxo-6-(tetrahydrofuran-2-yl)-7-(trifluoromethyl)-1,2-dihydro-1,8-naphthyridine-3-carboxamido)acetic acid or (S)-2-(4-Hydroxy-1-methyl-2-oxo-6-(tetrahydrofuran-2-yl)-7-(trifluoromethyl)-1,2-dihydro-1,8-naphthyridine-3-carboxamido)acetic acid] | 50 to 100 nM |
